In ChEMBL document CHEMBL1128769, “Structure-activity relationships of tricyclic quinoxalinediones as potent antagonists for the glycine binding site of the NMDA receptor 2” (Bioorg Med Chem Lett, 1995):
pKi: −log10 of the molar value.

Legend:
[1] = molecular target: Glutamate receptor ionotropic, NMDA 1 (Rattus norvegicus, UniProt P35439); experiment: Affinity for the glycine binding site of the NMDA receptor using [3H]- 5,7- dichloro -kynurenic acid as radio-ligand
[2] = molecular target: Glutamate receptor ionotropic, NMDA 1 (Rattus norvegicus) (UniProt P35439); experiment: Percent inhibition of binding affinity for the glycine binding site of the NMDA receptor using [3H]5,7- dichloro -kynurenic acid at a concentration of 10 ng/mL
[3] = molecular target: Glutamate receptor ionotropic, NMDA 1 (Rattus norvegicus) (UniProt P35439); experiment: Percent inhibition of [3H]- 5,7- dichloro -kynurenic acid binding to glycine binding site of NMDA receptor at 10 ng/mL

| SMILES | pKi [1] | inhibition [2] [%] | inhibition [3] [%] |
| --- | --- | --- | --- |
| C[C@H]1Cc2cc(Cl)cc3[nH]c(=O)c(=O)n(c23)C1CC(=O)O (stereo not given in full) | 8.36 |  |  |
| O=C(CC1CCc2cc(Br)cc3[nH]c(=O)c(=O)n1c23)Nc1ccc([N+](=O)[O-])cc1 (stereo not given) |  | 21.5 |  |
| O=C(O)CC1CCc2cccc3[nH]c(=O)c(=O)n1c23 (stereo not given) |  | 30.3 |  |
| O=C(CC1CCc2cccc3[nH]c(=O)c(=O)n1c23)Nc1ccccc1 (stereo not given) |  | 52.7 |  |
| O=C(CC1CCc2cc(Br)cc3[nH]c(=O)c(=O)n1c23)Nc1ccc(C(F)(F)F)cc1 (stereo not given) |  |  | 1 |
| CC(=O)Nc1ccc(NC(=O)CC2CCc3cc(Br)cc4[nH]c(=O)c(=O)n2c34)cc1 (stereo not given) |  |  | 73 |
| O=C(CC1CCc2cc(Br)cc3[nH]c(=O)c(=O)n1c23)Nc1ccccc1 (stereo not given) | 8.59 |  | 92.9 |
| C[C@H]1Cc2cc(Cl)cc3[nH]c(=O)c(=O)n(c23)C1CC(=O)Nc1ccccc1 (stereo not given in full) | 8.51 |  |  |
| O=C(O)CC1CCc2cc(Br)cc3[nH]c(=O)c(=O)n1c23 (stereo not given) | 8.00 |  | 68.7 |
| O=C(CC1CCc2cc(Cl)cc3[nH]c(=O)c(=O)n1c23)Nc1ccccc1 (stereo not given) | 8.18 |  | 79.3 |
| O=C(CC1CCc2cc(I)cc3[nH]c(=O)c(=O)n1c23)Nc1ccccc1 (stereo not given) | 6.87 |  | 46.7 |
| N#Cc1ccc(NC(=O)CC2CCc3cc(Br)cc4[nH]c(=O)c(=O)n2c34)cc1 (stereo not given) |  | 3.8 |  |
| NC(=O)CC1CCc2cc(Br)cc3[nH]c(=O)c(=O)n1c23 (stereo not given) |  |  | 28.9 |
| O=C(O)CC1CCc2cc(I)cc3[nH]c(=O)c(=O)n1c23 (stereo not given) | 7.33 |  | 76.2 |
| Nc1ccc(NC(=O)CC2CCc3cc(Br)cc4[nH]c(=O)c(=O)n2c34)cc1 (stereo not given) |  |  | 76.4 |
| Cc1ccc(NC(=O)CC2CCc3cc(Br)cc4[nH]c(=O)c(=O)n2c34)cc1 (stereo not given) |  |  | 83.3 |
| O=C(O)CC1CCc2cc(Cl)cc3[nH]c(=O)c(=O)n1c23 (stereo not given) | 8.29 |  | 90.3 |
| COc1ccc(NC(=O)CC2CCc3cc(Br)cc4[nH]c(=O)c(=O)n2c34)cc1 (stereo not given) |  |  | 67.5 |
| O=C(CC1CCc2cc(Br)cc3[nH]c(=O)c(=O)n1c23)NC1CCCCC1 (stereo not given) |  |  | 23.8 |
